Structures can show the parent of a compound that is named as a salt.

Data set [1] concerns SARS-CoV-2.
Data set [2] in a line: in vitro. To be noted: human.
The test system of data set [3] is SARS-CoV-2. Put plainly: microbe, parasite or virus in culture. Conditions: Severe acute respiratory syndrome coronavirus 2, HeLa-ACE2, 24 h, read-out: CoV-2 EC50 [μM] (Geomeans, n ≥ 2).
A further data set has as its system HeLa-ACE2 cells. Put plainly: cells. Format: cell-based, human. Conditions: Homo sapiens, HeLa-ACE2, read-out: HeLa-ACE-2 EC50 [μM] (Geomeans, n ≥ 2).
The nature of data set [4]: in vitro. Conditions: human. This is another data set of the same source.
Procedure: To assess cell viability, 2 μL of 50% Cell-Titer Glo (Promega No G7573) diluted in water was added to the cells and luminescence measured on an EnVision Plate Reader (Perkin Elmer).
Data analysis. […] Primary in vitro screen and the host cell cytotoxicity counter screen data were uploaded to Genedata Screener, Version 16.0.3-Standard. […] For the uninfected host cell cytotoxicity counter screens, 40 μM puromycin (Sigma) was used as the positive (inhibitory) control in HeLa-ACE2, HepG2 and HEK293T cells, and 30 μM puromycin (Sigma) was used as the positive (inhibitory) control for Calu-3 cells. For dose response experiments compounds were tested in technical triplicates on different assay plates and dose curves were fitted with the four parameter Hill Equation. Technical replicate data were analyzed using median condensing. Geometric means and geometric standard deviations are reported for compound activities (EC50s and CC50s) obtained in multiple independent biological experiments. […] Geometric means were calculated by computing the logarithm (base 10) of all values, calculating the mean of these logarithms, and taking the antilog of that mean. Geometric standard deviations were computed by taking the standard deviation of the log-transformed individual values and taking the antilog of that standard deviation. The geometric standard deviation is a unitless ratio and reported as ×÷ instead of +/−.
The subject of data set [5] is SARS-CoV-2. To be noted: Table 4.
Where [6] appears, read: CC50 [μM] (Geomeans, n ≥ 2 except where indicated: *n = 1).

One may read the EC50 as the concentration that produces a half-maximal response. `CCCN1CCN(c2ccc(C(=O)NC3(C(=O)NCC#N)CCCCC3)cc2)CC1` [Balicatib]: the “HeLa-ACE2 CC50/CoV-2 EC50” value with SARS-CoV-2 [1] is above 7.79. The molecule further displayed a CC50 in “in vitro [2]” (setting [6]) above 39.8 µM. For the same molecule, the EC50 in the data set with SARS-CoV-2 [3] is 5.11 µM; in the data set on HeLa-ACE2 cells, above 9.59 µM.

For `COC(=O)[C@]12CCC(C)(C)C[C@H]1[C@H]1C(=O)C=C3[C@@]4(C)C=C(C#N)C(=O)C(C)(C)[C@@H]4CC[C@@]3(C)[C@]1(C)CC2` [Bardoxolone Methyl], the “HeLa-ACE2 SI CC50/CoV-2 EC50” value in the data set on SARS-CoV-2 [1] (Table 4) is 5.73. Also, the CC50 in “in vitro [4]” was found to be 3.06 µM; in the data set “in vitro [2]” (HeLa-ACE2 Uninfected Tox CC50 [μM], Table 4, aggregated data, Geomean, n = 3) it was 3.1 µM. For the same molecule, the “Calu3 SI CC50/CoV-2 EC50” value with SARS-CoV-2 [5] is 38.47.

`COCC12CN(S(=O)(=O)c3ccc4cc(Cl)ccc4c3)CC(=O)N1CC1(CCN(c3ccncc3)CC1)O2` (stereo not shown) [M-55532]: the “HeLa-ACE2 CC50/CoV-2 EC50” value in the data set on SARS-CoV-2 [1] is listed as 6.81. In “in vitro [2]” (setting [6]), this molecule had a CC50 of 18.9 µM. In addition, the EC50 was 2.77 µM in the data set on SARS-CoV-2 [3] and above 6.45 µM with HeLa-ACE2 cells.

For `COc1cc(CC2c3cc(OC)c(OC)cc3CCN2C)c(Oc2cc3c(cc2OC)-c2c(O)c(OC)cc4c2C(C3)N(C)CC4)cc1OC` (stereo not shown) [Thalicarpine Analog], the “HeLa-ACE2 CC50/CoV-2 EC50” value in the data set on SARS-CoV-2 [1] was 26.77. In “in vitro [2]” (setting [6]), this molecule came in with a CC50 above 21.5 µM. The EC50 is above 0.8 µM with SARS-CoV-2 [3] and above 8.78 µM in the data set with HeLa-ACE2 cells.

Consider `CCOC(=O)c1c(CSc2ccccc2)n(C)c2cc(Br)c(O)c(CN(C)C)c12` [Arbidol], for which the “HeLa-ACE2 CC50/CoV-2 EC50” value in the data set with SARS-CoV-2 [1] turned out to be 4.88. For the same molecule, in the data set “in vitro [2]” (setting [6]), the CC50 is above 29.1 µM. The figures for the EC50 in the data set with SARS-CoV-2 [3] and in the data set on HeLa-ACE2 cells were above 5.97 µM and above 9.34 µM, respectively.

Take `O=c1c2ccccc2[se]n1-c1ccccc1` [Ebselen]: in the data set with SARS-CoV-2 [1], the “HeLa-ACE2 CC50/CoV-2 EC50” value is reported as 3.13. Besides, the CC50 in “in vitro [2]” (setting [6]) was above 26.6 µM. For the same molecule, the figures for the EC50 in the data set on SARS-CoV-2 [3] and with HeLa-ACE2 cells were above 8.5 µM and 6.02 µM, respectively.

`Cc1cccc(C)c1NC(=O)CN1CCN([C@@H]2CCN(C(=O)c3cc(C(F)(F)F)cc(C(F)(F)F)c3)[C@@H](Cc3ccccc3)C2)CC1` [R-116301]: in the data set with SARS-CoV-2 [1], the “HeLa-ACE2 CC50/CoV-2 EC50” value was found to be 3.73. The same molecule returned a CC50 in the data set “in vitro [2]” (setting [6]) of 25.5 µM. Further, the EC50 in the data set with SARS-CoV-2 [3] is 6.83 µM; in the data set with HeLa-ACE2 cells, above 9.59 µM.

For the molecule `COC(=O)C1=C(C)NC(C)=C(C(=O)OCCCCNC[C@@H](O)COc2ccccc2)C1c1cccc([N+](=O)[O-])c1` (stereo partly shown) [YM 430], in the data set on SARS-CoV-2 [1], the “HeLa-ACE2 CC50/CoV-2 EC50” value stood at 7.01. The CC50 in “in vitro [2]” (setting [6]) was above 20.2 µM. Further, the EC50 with SARS-CoV-2 [3] is 2.88 µM; in the data set with HeLa-ACE2 cells, above 7.8 µM.

With `O=C(c1ccc(OCCN2CCCCC2)cc1)c1c(-c2ccc(O)cc2)sc2cc(O)ccc12` [raloxifene hydrochloride], the “HeLa-ACE2 CC50/CoV-2 EC50” value with SARS-CoV-2 [1] is given as above 2.97. For the same molecule, in “in vitro [2]” (setting [6]), the CC50 was above 13.3 µM. Further, the EC50 with SARS-CoV-2 [3] is 4.48 µM; in the data set with HeLa-ACE2 cells it was above 8.71 µM.

`Oc1ccc(CCN2CCC(Nc3nc4ccccc4n3Cc3ccc(F)cc3)CC2)cc1` [DESMETHYLASTEMIZOLE]: in the data set with SARS-CoV-2 [1], the “HeLa-ACE2 CC50/CoV-2 EC50” value is given as 6.81. This molecule also gave a CC50 in “in vitro [2]” (setting [6]) of 16.2 µM. Moreover, the EC50 with SARS-CoV-2 [3] is 2.38 µM; in the data set on HeLa-ACE2 cells it was above 9.59 µM.

In the case of `C=CC(=O)Nc1cc2c(Nc3ccc(F)c(Cl)c3)ncnc2cc1C#CC(C)(C)N1CCN(C)CC1` [MP-412], the “HeLa-ACE2 CC50/CoV-2 EC50” value in the data set with SARS-CoV-2 [1] worked out at 4.18. In the data set “in vitro [2]” (setting [6]), this molecule returned a CC50 of 3.18 µM. In addition, the half-maximal effective concentration (EC50) came out at 0.761 µM in the data set with SARS-CoV-2 [3] and 1.25 µM in the data set on HeLa-ACE2 cells.

On to `CN1CCN(CCCN2c3ccccc3Sc3ccc(S(=O)(=O)N(C)C)cc32)CC1` [Thioproperazine], for which the “HeLa-ACE2 CC50/CoV-2 EC50” value with SARS-CoV-2 [1] amounted to 7.29. Further, the CC50 in “in vitro [2]” (setting [6]) was determined as 22.1 µM. For the same molecule, the EC50 is 3.03 µM in the data set with SARS-CoV-2 [3] and above 9.59 µM in the data set with HeLa-ACE2 cells.

With `CC(C)(C)NC(=O)N[C@H](C(=O)N1C[C@H]2[C@@H]([C@H]1C(=O)NC(CC1CCC1)C(=O)C(N)=O)C2(C)C)C(C)(C)C` (stereo partly shown) [Boceprevir], the “HeLa-ACE2 CC50/CoV-2 EC50” value in the data set with SARS-CoV-2 [1] was 4.27. In the data set “in vitro [2]” (setting [6]), this molecule gave a CC50 above 39.8 µM. Besides, the values for the EC50 with SARS-CoV-2 [3] and in the data set with HeLa-ACE2 cells were above 9.34 µM and above 7.08 µM, respectively.

For the molecule `C[C@@H]1CCCN1CCc1cc2cc(-c3ccc(C#N)cc3)ccc2o1` [ABT-239], in the data set with SARS-CoV-2 [1], the “HeLa-ACE2 CC50/CoV-2 EC50” value worked out at 11.18. In the data set “in vitro [2]” (setting [6]), this molecule showed a CC50 above 37.2 µM. The EC50 with SARS-CoV-2 [3] is above 3.33 µM; with HeLa-ACE2 cells, above 7.49 µM.

Consider `Cc1ccc(C(=O)Nc2cccc(C(F)(F)F)c2)cc1NC(=O)c1cccc2c(N)nccc12` [RFM-011-761-3], for which the “HeLa-ACE2 CC50/CoV-2 EC50” value in the data set on SARS-CoV-2 [1] is above 3.37. The molecule also gave a CC50 in the data set “in vitro [2]” (setting [6]) above 21.2 µM. For the same molecule, the EC50 in the data set with SARS-CoV-2 [3] was 6.31 µM; in the data set on HeLa-ACE2 cells, above 9.06 µM.

Regarding `Cc1cn2nc(-c3cc(=O)n4cc(N5CCNC6(CC6)C5)ccc4n3)cc(C)c2n1` [Risdiplam], the “HeLa-ACE2 CC50/CoV-2 EC50” value with SARS-CoV-2 [1] is on record as 2.53. The molecule further gave a CC50 in the data set “in vitro [2]” (setting [6]) above 17.8 µM. Further, the EC50 in the data set with SARS-CoV-2 [3] and with HeLa-ACE2 cells was above 7.05 µM each time.

The values are drawn from patent publication US20230346820A1, “METHODS AND COMPOSITIONS FOR THE TREATMENT OF SARS-COV-2” (priority 2020, published 2023).
